Experiment [1] has as its system MS751 cells. Kind of experiment: MTT cell proliferation assay, MS751. Format: cell-based, human. The conditions noted are these: Homo sapiens. In short, it runs like this:
(§1)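 Cells plated at 5,000-10,000/well and attached overnight, then treated with eight compound concentrations from 1 nM to 30 μM. MTT added ~4 h, formazan solubilised and read at 490 nm. Percent inhibition versus negative control = (1-(ODo/OD))×100, mostly in duplicate, mean ± SE.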
On the technique in general: Formazan colour is commonly taken as a measure of viable cells.

Experiment [2] has as its system 3T3 cells. The experiment can be described thus: MTT cell proliferation assay, 3T3. Format: cell-based, mouse. The following applies: Mus musculus. Summed up:
as §1

The test system of experiment [3] is Z138 cells. The experiment can be described thus: MTT cell proliferation assay, Z138. The conditions noted are these: Homo sapiens. Format: cell-based. Summed up:
as §1

[4] abbreviates: MS751, MS751 cells, approximately 64-72 hours incubation, read-out: MTT Assay IC50, MS751.
[5] abbreviates: NIH3T3, 3T3 cells, approximately 64-72 hours incubation, read-out: MTT Assay IC50, 3T3.
Where [6] appears, read: Z-138, Z138 cells, approximately 64-72 hours incubation, read-out: MTT Assay IC50, Z138.
The mark [7] stands for this setting: MS751, read-out: MTT Assay IC50, MS751.
The mark [8] stands for this setting: NIH3T3, read-out: MTT Assay IC50, 3T3.
Where [9] appears, read: Z-138, read-out: MTT Assay IC50, Z138.

As a reminder, the IC50 is the concentration at which inhibition is half-maximal.

Read-outs that look alike come from different tables or passages of the source. A value given as a limit tells only on which side of the number the result lay.

Consider `COc1ccc(/C=C/C(=O)NCC2Cc3cc(-c4ccc(C(C)=O)s4)cc(Cl)c3O2)cn1` (stereo not drawn) [Compound 296, (E)-N-((5-(5-acetylthiophen-2-yl)-7-chloro-2,3-dihydrobenzofuran-2-yl)methyl)-3-(6-methoxypyridin-3-yl)acrylamide], for which the IC50 was 5 to 30 µM in experiment [1] (setting [4]), more than 30 µM in experiment [2] (setting [5]) and 5 to 30 µM in experiment [3] (setting [6]).
Consider `CC(=O)c1ccc(-c2cc(Cl)c3c(c2)CC(CNC(=O)/C=C/c2ccc(-c4ccc(F)cc4)s2)O3)s1` (stereo not drawn) [Compound 297, (E)-N-((5-(5-acetylthiophen-2-yl)-7-chloro-2,3-dihydrobenzofuran-2-yl)methyl)-3-(5-(4-fluorophenyl)thiophen-2-yl)acrylamide], for which the IC50 in experiment [1] (setting [4]), in experiment [2] (setting [5]) and in experiment [3] (setting [6]) was more than 30 µM in each case.
For `CC(=O)c1ccc(-c2cc(Cl)c3c(c2)CC(CNC(=O)/C=C/c2cncc(F)c2)O3)s1` (stereo not drawn) [Compound 298, (E)-N-((5-(5-acetylthiophen-2-yl)-7-chloro-2,3-dihydrobenzofuran-2-yl)methyl)-3-(5-fluoropyridin-3-yl)acrylamide], the IC50 was more than 30 µM in experiment [1] (setting [4]), more than 30 µM in experiment [2] (setting [5]) and 0.1 to 5 µM in experiment [3] (setting [6]).
As to `CC(=O)c1ccc(-c2cc(Cl)c3c(c2)CC(CNC(=O)/C=C\c2cccnc2)O3)s1` (stereo not drawn) [Compound 299, (Z)-N-((5-(5-acetylthiophen-2-yl)-7-chloro-2,3-dihydrobenzofuran-2-yl)methyl)-3-(pyridin-3-yl)acrylamide], the half-inhibitory concentration (IC50) in experiment [1] (setting [4]) is 0.1 to 5 µM; in experiment [2] (setting [5]), more than 30 µM; in experiment [3] (setting [6]), 0.1 to 5 µM.
On to `Cc1noc(C)c1-c1cc(Cl)c2c(c1)CC(CNC(=O)/C=C/c1ccc(N)nc1)O2` (stereo not drawn) [Compound 300, (E)-3-(6-aminopyridin-3-yl)-N-((7-chloro-5-(3,5-dimethylisoxazol-4-yl)-2,3-dihydrobenzofuran-2-yl)methyl)acrylamide], for which the half-inhibitory concentration (IC50) is 0.1 to 5 µM in experiment [1] (setting [4]), more than 30 µM in experiment [2] (setting [5]) and less than 0.1 µM in experiment [3] (setting [6]).
As to `CC(=O)c1ccc(-c2cc(Cl)c3c(c2)CC(CNC(=O)/C=C/c2cc(C)n(-c4ccccc4)c2C)O3)s1` (stereo not drawn) [Compound 301, (E)-N-((5-(5-Acetylthiophen-2-yl)-7-chloro-2,3-dihydrobenzofuran-2-yl)methyl)-3-(2,5-dimethyl-1-phenyl-1H-pyrrol-3-yl)acrylamide], the IC50 in experiment [1] (setting [4]), in experiment [2] (setting [5]) and in experiment [3] (setting [6]) was more than 30 µM each time.
`CC(=O)c1ccc(Oc2cc(Cl)c3c(c2)CC(CNC(=O)/C=C/c2cccnc2)O3)s1` (stereo not drawn) [Compound 303, (E)-N-((5-(5-acetylthiophen-2-yloxy)-7-chloro-2,3-dihydrobenzofuran-2-yl)methyl)-3-(pyridin-3-yl)acrylamide]: the 50% inhibitory concentration (IC50) in experiment [1] (setting [4]), in experiment [2] (setting [5]) and in experiment [3] (setting [6]) was 0.1 to 5 µM throughout.
With `CC(C)(O)c1ccc(-c2cc(Cl)c3c(c2)CC(CNC(=O)/C=C/c2cccnc2)O3)s1` (stereo not drawn) [Compound 304, (E)-N-((7-chloro-5-(5-(2-hydroxypropan-2-yl)thiophen-2-yl)-2,3-dihydrobenzofuran-2-yl)methyl)-3-(pyridine-3-yl)acrylamide], the results for the IC50 in experiment [1] (setting [4]), in experiment [2] (setting [5]) and in experiment [3] (setting [6]) were less than 0.1 µM, 0.1 to 5 µM and less than 0.1 µM, respectively.
For the compound `CC(=O)c1ccc(-c2cccc3c2OC(CNC(=O)/C=C/c2ccc(N)nc2)C3)s1` (stereo not drawn) [Compound 305, (E)-N-((7-(5-Acetylthiophen-2-yl)-2,3-dihydrobenzofuran-2-yl)methyl)-3-(6-aminopyridin-3-yl)acrylamide], the concentration for half-maximal inhibition (IC50) in experiment [1] (setting [4]) fell in the range of 0.1 to 5 µM; in experiment [2] (setting [5]) it was 5 to 30 µM; in experiment [3] (setting [6]), 0.1 to 5 µM.
Turning to `CC(O)c1ccc(-c2cc(Cl)c3c(c2)CC(CNC(=O)/C=C/c2ccc(N)nc2)O3)s1` (stereo not drawn) [Compound 306, (E)-3-(6-aminopyridin-3-yl)-N-((7-chloro-5-(5-(1-hydroxyethyl)thiophen-2-yl)-2,3-dihydrobenzofuran-2-yl)methyl)acrylamide], the results for the IC50 in experiment [1] (setting [4]), in experiment [2] (setting [5]) and in experiment [3] (setting [6]) were 0.1 to 5 µM, more than 30 µM and 0.1 to 5 µM, respectively.
On to `CC(O)c1ccc(-c2cc(Cl)c3c(c2)CC(CNC(=O)/C=C/c2cccnn2)O3)s1` (stereo not drawn) [Compound 307], for which the IC50 in experiment [1] (setting [4]), in experiment [2] (setting [5]) and in experiment [3] (setting [6]) was 0.1 to 5 µM throughout.
For `CC(=O)c1ccc(-c2cc(Cl)c3c(c2)CC(CNS(=O)(=O)/C=C/c2cccnc2)O3)s1` (stereo not drawn) [Compound 310, (E)-N-((5-(5-acetylthiophen-2-yl)-7-chloro-2,3-dihydrobenzofuran-2-yl)methyl)-2-(pyridine-3-yl) ethenesulphonamide], the half-inhibitory concentration (IC50) was more than 30 µM in experiment [1] (setting [7]), more than 30 µM in experiment [2] (setting [8]) and 5 to 30 µM in experiment [3] (setting [9]).
As for `CC(=O)c1ccc(-c2cc(Cl)c3c(c2)CC(CNC(=O)/C=C/c2ccc(O)nc2)O3)s1` (stereo not drawn) [Compound 311, (E)-N-((5-(5-acetylthiophen-2-yl)-7-chloro-2,3-dihydrobenzofuran-2-yl)methyl)-3-(6-hydroxypyridin-3-yl)acrylamide], the IC50 in experiment [1] (setting [7]), in experiment [2] (setting [8]) and in experiment [3] (setting [9]) was more than 30 µM each time.
`CC(=O)c1ccc(-c2cc(Cl)c3c(c2)CC(CNC(=O)/C=C/c2cccnn2)O3)o1` (stereo not drawn) [Compound 314, (E)-N-((5-(5-acetylfuran-2-yl)-7-chloro-2,3-dihydrobenzofuran-2-yl)methyl)-3-(pyridazin-3-yl)acrylamide]: the concentration for half-maximal inhibition (IC50) in experiment [1] (setting [4]), in experiment [2] (setting [5]) and in experiment [3] (setting [6]) was 0.1 to 5 µM in each case.
Consider `CC(=O)Nc1ccc(/C=C/C(=O)NCC2Cc3cc(-c4ccc(C(C)=O)s4)cc(Cl)c3O2)cn1` (stereo not drawn) [Compound 315, (E)-3-(6-acetamidopyridin-3-yl)-N-((5-(5-acetylthiophen-2-yl)-7-chloro-2,3-dihydrobenzofuran-2-yl)methyl)acrylamide], for which the IC50 in experiment [1] (setting [7]), in experiment [2] (setting [8]) and in experiment [3] (setting [9]) was more than 30 µM in each case.
With `CC(=O)c1ccc(-c2cc(Cl)c3c(c2)CC(CNC(=O)/C=C/c2ccc(N)nc2)O3)o1` (stereo not drawn) [Compound 319, (E)-N-((5-(5-acetylfuran-2-yl)-7-chloro-2,3-dihydrobenzofuran-2-yl)methyl)-3-(6-aminopyridine-3-yl)acrylamide], the IC50 in experiment [1] (setting [4]) was 0.1 to 5 µM; in experiment [2] (setting [5]), 5 to 30 µM; in experiment [3] (setting [6]), less than 0.1 µM.
On to `CC(C)(O)c1ccc(-c2cc(Cl)c3c(c2)CC(CNC(=O)/C=C/c2cccnn2)O3)s1` (stereo not drawn) [Compound 320, (E)-N-((7-chloro-5-(5-(2-hydroxypropan-2-yl)thiophen-2-yl)-2,3-dihydrobenzofuran-2-yl)methyl)-3-(pyridazin-3-yl)acrylamide], for which the IC50 in experiment [1] (setting [4]), in experiment [2] (setting [5]) and in experiment [3] (setting [6]) was 0.1 to 5 µM in each case.
Consider `CC(C)(O)c1ccc(-c2cc(Cl)c3c(c2)CC(CNC(=O)/C=C/c2ccc(N)nc2)O3)s1` (stereo not drawn) [Compound 321, (E)-3-(6-aminopyridin-3-yl)-N-((7-chloro-5-(5-(2-hydroxypropan-2-yl)thiophen-2-yl)-2,3-dihydrobenzofuran-2-yl)methyl)acrylamide], for which the half-maximal inhibitory concentration (IC50) in experiment [1] (setting [4]) is 0.1 to 5 µM; in experiment [2] (setting [5]), 5 to 30 µM; in experiment [3] (setting [6]), less than 0.1 µM.
The like results for `CC(=O)c1sc(-c2cc(Cl)c3c(c2)CC(CNC(=O)/C=C/c2ccc(N)nc2)O3)c(C)c1C` (stereo not drawn) [Compound 322] were, in that order, less than 0.1 µM, 5 to 30 µM and less than 0.1 µM.
For the compound `Nc1ccc(/C=C/C(=O)NCC2Cc3cc(-c4cnc(C(=O)N5CCOCC5)nc4)cc(Cl)c3O2)cn1` (stereo not drawn) [Compound 323, (E)-3-(6-aminopyridin-3-yl)-N-((7-chloro-5-(2-(morpholine-4-carbonyl)pyrimidin-5-yl)-2,3-dihydrobenzofuran-2-yl)methyl)acrylamide], the IC50 fell in the range of 0.1 to 5 µM in experiment [1] (setting [4]), 5 to 30 µM in experiment [2] (setting [5]) and 0.1 to 5 µM in experiment [3] (setting [6]).
Regarding `CN(C)C(=O)c1ccc(-c2cc(Cl)c3c(c2)CC(CNC(=O)/C=C/c2ccc(N)nc2)O3)o1` (stereo not drawn) [Compound 324, (E)-5-(2-((3-(6-Aminopyridin-3-yl)acrylamido)methyl)-7-chloro-2,3-dihydrobenzofuran-5-yl)-N,N-dimethylfuran-2-carboxamide], the values for the half-inhibitory concentration (IC50) in experiment [1] (setting [4]), in experiment [2] (setting [5]) and in experiment [3] (setting [6]) were less than 0.1 µM, 5 to 30 µM and less than 0.1 µM, respectively.
With `Cc1onc(-c2ccccc2)c1-c1cc(Cl)c2c(c1)CC(CNC(=O)/C=C/c1ccc(N)nc1)O2` (stereo not drawn) [Compound 325, (E)-3-(6-aminopyridin-3-yl)-N-((7-chloro-5-(5-methyl-3-phenylisoxazol-4-yl)-2,3-dihydrobenzofuran-2-yl)methyl)acrylamide], the half-inhibitory concentration (IC50) in experiment [1] (setting [4]) was 0.1 to 5 µM; in experiment [2] (setting [5]) it was 0.1 to 5 µM; in experiment [3] (setting [6]), less than 0.1 µM.
For the compound `Nc1ccc(/C=C/C(=O)NCC2Cc3cc(-c4cnc(C(=O)N5CCOCC5)c(Cl)c4)cc(Cl)c3O2)cn1` (stereo not drawn) [Compound 326, (E)-3-(6-aminopyridin-3-yl)-N-((7-chloro-5-(5-chloro-6-(morpholine-4-carbonyl)pyridin-3-yl)-2,3-dihydrobenzofuran-2-yl)methyl)acrylamide], the half-maximal inhibitory concentration (IC50) in experiment [1] (setting [4]) was 0.1 to 5 µM; in experiment [2] (setting [5]) it was 5 to 30 µM; in experiment [3] (setting [6]) it was less than 0.1 µM.
The like results for `Cc1noc(-c2ccccc2)c1-c1cc(Cl)c2c(c1)CC(CNC(=O)/C=C/c1ccc(N)nc1)O2` (stereo not drawn) [Compound 327, (E)-3-(6-aminopyridin-3-yl)-N-((7-chloro-5-(3-methyl-5-phenylisoxazol-4-yl)-2,3-dihydrobenzofuran-2-yl)methyl)acrylamide] were, in that order, 0.1 to 5 µM, 0.1 to 5 µM and less than 0.1 µM.
